Laboratory results reported in the NIST ThermoML archive (doi:10.1016/j.fluid.2006.01.017).
Numbers after ± are expanded uncertainties.

Experiments:
[1] = refractive index (Na D-line) (dimensionless); conditions: 293.2 K; 101.33 kPa; Liquid; Standard Abbe refractometry
[2] = 293.2 K; 101.33 kPa; Liquid

| refractive index [1] | mass density [2] [kg/m3] | SMILES |
| --- | --- | --- |
| 1.36 ± 0.0004 | – | CCO [ethanol] |
| 1.3702 ± 0.0004 | 900.6 ± 0.3 | CCOC(C)=O [ethyl acetate] |
